Results: patent US6713494B1, “Amorphous benzothiophenes, methods of preparation and methods of use” (Eli Lilly and Company, priority 1996, dated 2004)
Counter-ions that a name gives are not always drawn. Like-named read-outs stand apart in the source and are kept apart here.

Assays:
[1] = for Solubility: in water, room temperature, hydrochloride
physchem = conditions: water, 37 °C, thermodynamic from solid, in water, in sonicator
[2] = Bioavailability study: plasma levels in dogs; format: in vivo; conditions: 4 mg/kg, PEG vehicle, plasma levels over a 10 hour period, amorphous vs crystalline form
Protocol: The extent and rate of absorption of the crystalline and amorphous forms of raloxifene HCl was determined. The two forms of the compound were formulated in a PEG vehicle as follows: […]
Six dogs were dosed as follows: three dogs received the amorphous form, while three dogs received the crystalline form, both at a dose of 4 mg/kg. Plasma levels of the two compound forms were then determined over a 10 hour period.

[3] = long term studies; birefringence under polarized light microscope
Protocol: The presence of the amorphous form of a compound of formula I was determined by observing the material under a polarized light microscope, and determining if the material was birefringent. If no birefringence was observed, the material was considered to be amorphous.
The amorphous material was also made as a complex with povidone, with ratios of raloxifene HCl to PVP as follows: 9:1, 3:1, and 1:1 (w/w). Complexes with hydroxypropyl-β-cyclodextrin (HPBCD) were also prepared, with a ratio of raloxifene HCl to HPBCD of from 1:1 to 1:4 (w/w).

Row | Compound | Solubility of the amorphous form relative to the crystalline form ([1]; amorphous vs crystalline form) | Solubility [1] [mg/mL] | Solubility (physchem) [mg/mL] | Bioavailability (plasma levels) [2] | Stability of the amorphous form [3]
1 | O=C(c1ccc(OCCN2CCCCC2)cc1)c1c(-c2ccc(O)cc2)sc2cc(O)ccc12 [amorphous, raloxifene hydrochloride] | approximately 250 times | 42.2 | 120 | greater bioavailability | very stable
2 | O=C(c1ccc(OCCN2CCCCC2)cc1)c1c(-c2ccc(O)cc2)sc2cc(O)ccc12 [crystalline, raloxifene hydrochloride, reference compound] | – | 0.08 | – | – | –
